Tested on: Aska and SYO1 SyS cell lines
Assay: SS18-SSX knockdown (shSSX vs shCt) with scRNA-Seq readout
Format: cell-based, human
Source text: To decouple the intrinsic and extrinsic factor determining the malignant cell states in SyS Applicants first tested whether the core oncogenic and other programs were co-regulated by the genetic fusion driving SyS. Applicants turned to explore the potential regulators of these cellular programs, starting from the genetic driver. To this end, they depleted SS18-SSX in two SyS cell lines (SYO1 and Aska) using shRNA and profiled 12,263 cells with scRNA-Seq. The fusion KD led to massive and highly consistent transcriptional alternation in both cell lines (FIG. 7A, Tables 8, 9). […] Leveraging the single-cell readout Applicants confirmed that the KD impact on the core oncogenic and differentiation programs was decoupled from, and not secondary to, the repression of cellular proliferation (FIG. 7B), such that the impact on the core oncogenic and differentiation programs was observed even when controlling for the cycling status of the cells, and when considering only cycling or non-cycling cells (P<1.54*10^−13, t-test, FIG. 5B, METHODS). Thus, the fusion's impact on cell cycle may be secondary or downstream to its impact on the core oncogenic program. In addition, the fusion KD led to an induction of antigen presentation and cell autonomous immune responses, such as TNF and IFN signaling (P<1*10^−30, mixed-effects, FIG. 8A).
The SyS cell lines Aska and SYO1 were cultured using standard protocols in DMEM medium (Gibco) supplemented with 10-20% fetal bovine serum, 1% Glutamax (Gibco), 1% Sodium Pyruvate (Gibco) and 1% Penicillin-Streptomycin (Gibco) and grown in a humidified incubator at 37° C. with 5% CO2. Cells expressing a pLKO.1 vector with a scrambled shRNA hairpin control (5′-[…] CTTAGG-3′) (SEQ ID NO: 5) or a shSSX hairpin targeting SSX of the SS18-SSX fusion (5′-[…]-3′) (SEQ ID NO: 6) were prepared by lentiviral infection. In brief, lentivirus was prepared by transfection of HEK293T cells with gene delivery vector and the packaging vectors pspax2 and pMD2.G, filtration of media followed by ultracentrifugation, and then resuspension of viral pellet in PBS. Aska and SYO1 cells were infected with lentivirus for 48 hours and then underwent 5 days of selection with puromycin (2 μg/mL) prior to collection for single cell RNA-seq analysis.
The fusion program consists of genes that were differentially expressed in the Aska or SYO1 cells with the SS18-SSX shRNA (shSSX) compared to those with control shRNA (shCt) after 3 or 7 days post-infection. Gene that were previously reported (35, 36) to be bound by the SS18-SSX oncoprotein in at least two SyS cell lines were defined as direct SS18-SSX targets, and were used to stratify the SS18-SSX program to direct and indirect targets.

[1] = SSX shRNA (shSSX) vs control shRNA (shCt), ASKA and SYO1 cells, scRNA-Seq

For “shSSX: shSSX hairpin targeting SSX of the SS18-SSX fusion (5′-CAGTCACTGACAGTTAATAAA-3′), pLKO.1 lentiviral vector”, the mesenchymal differentiation program [1] was “induced”, the “overall expression of the cell cycle program” value [1] was “repressed” and the “overall expression of the core oncogenic program” value [1] was “repressed”. The “immune responses (topmost differentially expressed pathways)” value (shSSX vs shCt, SyS cells stratified by cycling status) was “inducing multiple immune responses”.
